According to ChEMBL document CHEMBL1201862, “PubChem BioAssay data set” (2004):
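Method: 48-hour compound exposure of cells in 96-well plates, five concentrations, linear interpolation of endpoints. GI50 marks 50% less growth.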 Active and inactive are the calls of the source. Rule as the data show it: active = GI50 up to about 1.1 µM and inactive = higher.

How the values were obtained:
Assay in all cases: NCI anticancer screen, dose series, 48 h
[1] = system: SK-MEL-28
[2] = system: OVCAR-5
[3] = system: PC-3
[4] = system: CCRF-CEM
[5] = system: HCT-116
[6] = system: ACHN
[7] = system: SNB-75
[8] = system: 786-0
[9] = system: SN12C
[10] = system: RXF 393
[11] = system: HT-29
[12] = system: Malme-3M
[13] = system: LOX IMVI
[14] = system: RPMI-8226
[15] = system: SW-620
[16] = system: IGROV-1
[17] = system: NCI-H226
[18] = system: NCI-H460
[19] = system: OVCAR-3
[20] = system: UO-31
[21] = system: TK-10
[22] = system: NCI-H23
[23] = system: HCT-15
[24] = system: SK-OV-3
[25] = system: SNB-19
[26] = system: MOLT-4
[27] = system: HCC 2998
[28] = system: HOP-62
[29] = system: SF-268
[30] = system: MCF7
[31] = system: M14
[32] = system: DU-145
[33] = system: T47D
[34] = system: MDA-MB-435
[35] = system: OVCAR-8
[36] = system: COLO 205
[37] = system: MDA-N
[38] = system: OVCAR-4
[39] = system: SF-539
[40] = system: K562
[41] = system: U-251
[42] = system: A549
[43] = system: BT-549
[44] = system: UACC-257
[45] = system: NCI/ADR-RES
[46] = system: NCI-H522
[47] = system: CAKI-1
[48] = system: SK-MEL-2
[49] = system: HL-60
[50] = system: UACC-62
[51] = system: Hs-578T
[52] = system: MDA-MB-231
[53] = system: SK-MEL-5
[54] = system: KM12
[55] = system: HOP-92
[56] = system: SR
[57] = system: SF-295
[58] = system: EKVX
[59] = system: A498

`O=C(O)c1cc2ccccc2c2c1C(=O)c1ccccc1-2` was tested, and the GI50 [1] was 58.3 µM (inactive), the GI50 [2] was > 100 µM (inactive) and the GI50 [3] was > 100 µM (inactive). For the same compound, the GI50 [4] was > 100 µM (inactive), the GI50 [5] was > 100 µM (inactive) and the GI50 [6] was 30.3 µM (inactive). The GI50 [7] was > 100 µM (inactive), the GI50 [8] was > 100 µM (inactive) and the GI50 [9] was 75 µM (inactive). The GI50 [10] was > 100 µM (inactive), the GI50 [11] was > 100 µM (inactive) and the GI50 [12] was 83.8 µM (inactive). The GI50 [13] was > 100 µM (inactive), the GI50 [14] was 65.8 µM (inactive) and the GI50 [15] was > 100 µM (inactive). The GI50 [16] was 58.7 µM (inactive), the GI50 [17] was > 100 µM (inactive) and the GI50 [18] was > 100 µM (inactive). For the same compound, the GI50 [19] was 50 µM (inactive), the GI50 [20] was 46 µM (inactive) and the GI50 [21] was > 100 µM (inactive). The GI50 [22] was > 100 µM (inactive), the GI50 [23] was 92 µM and the GI50 [24] was 56.6 µM (inactive). The GI50 [25] was 57 µM (inactive), the GI50 [26] was > 100 µM (inactive) and the GI50 [27] was > 100 µM (inactive). For the same compound, the GI50 [28] was 20.7 µM (inactive), the GI50 [29] was > 100 µM (inactive) and the GI50 [30] was 98.9 µM (inactive). The GI50 [31] was 46.7 µM (inactive), the GI50 [32] was > 100 µM (inactive) and the GI50 [33] was > 100 µM (inactive). The GI50 [34] was > 100 µM (inactive), the GI50 [35] was > 100 µM (inactive) and the GI50 [36] was > 100 µM (inactive). The GI50 [37] was > 100 µM (inactive), the GI50 [38] was > 100 µM (inactive) and the GI50 [39] was > 100 µM (inactive). The GI50 [40] was > 100 µM (inactive), the GI50 [41] was > 100 µM (inactive) and the GI50 [42] was 75.9 µM (inactive). For the same compound, the GI50 [43] was > 100 µM (inactive), the GI50 [44] was > 100 µM (inactive) and the GI50 [45] was > 100 µM (inactive). For the same compound, the GI50 [46] was 83.9 µM (inactive), the GI50 [47] was > 100 µM (inactive) and the GI50 [48] was > 100 µM (inactive). For the same compound, the GI50 [49] was > 100 µM (inactive), the GI50 [50] was 45.9 µM (inactive) and the GI50 [51] was > 100 µM (inactive). The GI50 [52] was > 100 µM (inactive), the GI50 [53] was 79.3 µM (inactive) and the GI50 [54] was > 100 µM (inactive). The GI50 [55] was 50.2 µM (inactive), the GI50 [56] was 99.8 µM (inactive) and the GI50 [57] was 56 µM (inactive).
With `O=c1n(-c2ccccc2)c(=O)n2n1C1CCC2CC1` the GI50 [1] was > 100 µM (inactive), the GI50 [2] was > 100 µM (inactive) and the GI50 [3] was > 100 µM (inactive). The GI50 [4] was > 100 µM (inactive), the GI50 [5] was > 100 µM (inactive) and the GI50 [6] was > 100 µM (inactive). The GI50 [7] was > 100 µM (inactive), the GI50 [8] was > 100 µM (inactive) and the GI50 [9] was > 100 µM (inactive). For the same compound, the GI50 [11] was > 100 µM (inactive), the GI50 [13] was > 100 µM (inactive) and the GI50 [14] was > 100 µM (inactive). The GI50 [15] was > 100 µM (inactive), the GI50 [16] was > 100 µM (inactive) and the GI50 [17] was > 100 µM (inactive). For the same compound, the GI50 [18] was > 100 µM (inactive), the GI50 [19] was > 100 µM (inactive) and the GI50 [20] was > 100 µM (inactive). For the same compound, the GI50 [21] was > 100 µM (inactive), the GI50 [22] was > 100 µM (inactive) and the GI50 [23] was > 100 µM. For the same compound, the GI50 [24] was > 100 µM (inactive), the GI50 [25] was > 100 µM (inactive) and the GI50 [26] was > 100 µM (inactive). The GI50 [58] was > 100 µM (inactive), the GI50 [28] was > 100 µM (inactive) and the GI50 [29] was > 100 µM (inactive). The GI50 [30] was > 100 µM (inactive), the GI50 [59] was > 100 µM (inactive) and the GI50 [31] was > 100 µM (inactive). For the same compound, the GI50 [32] was > 100 µM (inactive), the GI50 [33] was > 100 µM (inactive) and the GI50 [34] was > 100 µM (inactive). For the same compound, the GI50 [35] was > 100 µM (inactive), the GI50 [36] was > 100 µM (inactive) and the GI50 [37] was > 100 µM (inactive). The GI50 [39] was > 100 µM (inactive), the GI50 [40] was > 100 µM (inactive) and the GI50 [41] was > 100 µM (inactive). The GI50 [42] was > 100 µM (inactive), the GI50 [43] was > 100 µM (inactive) and the GI50 [44] was > 100 µM (inactive). For the same compound, the GI50 [45] was > 100 µM (inactive), the GI50 [47] was > 100 µM (inactive) and the GI50 [48] was > 100 µM (inactive). The GI50 [49] was > 100 µM (inactive), the GI50 [50] was > 100 µM (inactive) and the GI50 [51] was > 100 µM (inactive). The GI50 [52] was > 100 µM (inactive), the GI50 [53] was > 100 µM (inactive) and the GI50 [54] was > 100 µM (inactive). The GI50 [55] was > 100 µM (inactive), the GI50 [56] was > 100 µM (inactive) and the GI50 [57] was > 100 µM (inactive).
For `C=C[C@]1(O[Si](C)(C)C)C[C@@]2(C(=O)OCC)C(O)C(=O)N3CCc4cc(OC)c(OC)cc4[C@]312` (some centres not stated), the GI50 [1] was > 100 µM (inactive), the GI50 [2] was > 100 µM (inactive) and the GI50 [3] was 93.8 µM (inactive). The GI50 [4] was > 100 µM (inactive), the GI50 [5] was > 100 µM (inactive) and the GI50 [6] was > 100 µM (inactive). For the same compound, the GI50 [7] was > 100 µM (inactive), the GI50 [8] was > 100 µM (inactive) and the GI50 [9] was > 100 µM (inactive). For the same compound, the GI50 [10] was > 100 µM (inactive), the GI50 [11] was > 100 µM (inactive) and the GI50 [12] was > 100 µM (inactive). The GI50 [13] was > 100 µM (inactive), the GI50 [14] was 61.1 µM (inactive) and the GI50 [15] was > 100 µM (inactive). For the same compound, the GI50 [16] was > 100 µM (inactive), the GI50 [17] was > 100 µM (inactive) and the GI50 [18] was > 100 µM (inactive). The GI50 [19] was > 100 µM (inactive), the GI50 [20] was > 100 µM (inactive) and the GI50 [21] was > 100 µM (inactive). For the same compound, the GI50 [22] was > 100 µM (inactive), the GI50 [23] was > 100 µM and the GI50 [24] was > 100 µM (inactive). The GI50 [25] was > 100 µM (inactive), the GI50 [26] was > 100 µM (inactive) and the GI50 [58] was > 100 µM (inactive). The GI50 [28] was > 100 µM (inactive), the GI50 [29] was > 100 µM (inactive) and the GI50 [30] was 90.8 µM (inactive). The GI50 [59] was 40.9 µM (inactive), the GI50 [31] was > 100 µM (inactive) and the GI50 [32] was > 100 µM (inactive). For the same compound, the GI50 [33] was > 100 µM (inactive), the GI50 [34] was > 100 µM (inactive) and the GI50 [35] was > 100 µM (inactive). For the same compound, the GI50 [36] was > 100 µM (inactive), the GI50 [37] was > 100 µM (inactive) and the GI50 [38] was > 100 µM (inactive). The GI50 [39] was > 100 µM (inactive), the GI50 [40] was > 100 µM (inactive) and the GI50 [41] was > 100 µM (inactive). For the same compound, the GI50 [42] was > 100 µM (inactive), the GI50 [43] was > 100 µM (inactive) and the GI50 [44] was > 100 µM (inactive). The GI50 [45] was > 100 µM (inactive), the GI50 [47] was > 100 µM (inactive) and the GI50 [48] was > 100 µM (inactive). The GI50 [50] was 21.4 µM (inactive), the GI50 [51] was 31.3 µM (inactive) and the GI50 [52] was > 100 µM (inactive). The GI50 [53] was 44.7 µM (inactive), the GI50 [54] was > 100 µM (inactive) and the GI50 [55] was 24.9 µM (inactive). The GI50 [56] was > 100 µM (inactive) and the GI50 [57] was > 100 µM (inactive).
